The pIC50 is the negative decadic logarithm of the IC50, by convention in mol/L.

pIC50: −log10 of the molar value.

Data on 21 compounds can be found in patent US11524966B1 (Valo Early Discovery, Inc., priority 2017, dated 2022).

In the assay the target is T1, USP28 (His-tagged USP28-FL-mammalian) (Homo sapiens, UniProt Q96RU2).
T1 construct: Expression of USP28 (1-1077)-TEV-6*His (pTT5 vector); made in house; host or cells: Expi293f cells (pTT5 vector)
T1 sequence (Q96RU2 1-1077): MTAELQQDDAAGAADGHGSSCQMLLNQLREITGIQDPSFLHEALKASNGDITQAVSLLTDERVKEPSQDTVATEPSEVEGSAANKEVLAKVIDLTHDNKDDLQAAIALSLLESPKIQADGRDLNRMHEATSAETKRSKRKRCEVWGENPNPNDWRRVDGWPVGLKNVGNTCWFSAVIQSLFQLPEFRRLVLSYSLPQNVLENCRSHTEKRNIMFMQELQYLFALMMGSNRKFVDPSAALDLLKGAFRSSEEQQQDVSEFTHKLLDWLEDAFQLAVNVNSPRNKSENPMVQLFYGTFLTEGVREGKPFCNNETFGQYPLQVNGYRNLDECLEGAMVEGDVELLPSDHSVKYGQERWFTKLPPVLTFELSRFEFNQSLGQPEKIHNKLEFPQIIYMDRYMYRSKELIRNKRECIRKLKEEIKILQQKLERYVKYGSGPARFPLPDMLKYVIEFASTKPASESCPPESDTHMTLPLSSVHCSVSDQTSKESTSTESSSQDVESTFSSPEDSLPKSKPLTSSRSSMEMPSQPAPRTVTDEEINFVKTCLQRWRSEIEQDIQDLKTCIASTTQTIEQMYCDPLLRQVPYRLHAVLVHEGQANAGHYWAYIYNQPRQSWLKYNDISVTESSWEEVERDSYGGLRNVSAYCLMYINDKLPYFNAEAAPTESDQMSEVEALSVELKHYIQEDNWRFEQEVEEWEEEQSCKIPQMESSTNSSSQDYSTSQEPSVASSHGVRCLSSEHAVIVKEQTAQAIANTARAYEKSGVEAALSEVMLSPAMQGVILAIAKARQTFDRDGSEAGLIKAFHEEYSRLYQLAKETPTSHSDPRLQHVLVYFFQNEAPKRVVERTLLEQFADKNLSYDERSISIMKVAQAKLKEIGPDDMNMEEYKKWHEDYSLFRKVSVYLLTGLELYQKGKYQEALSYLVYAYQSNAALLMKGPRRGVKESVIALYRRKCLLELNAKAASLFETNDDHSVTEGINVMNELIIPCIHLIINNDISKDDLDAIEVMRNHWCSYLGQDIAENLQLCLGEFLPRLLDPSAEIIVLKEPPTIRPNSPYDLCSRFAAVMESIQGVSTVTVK
Put plainly: Ubiquitin-Rhodamine 110 Assay for USP28 Activity, Example A-1(a). The note with it: Ubiquitin-Rhodamine 110 assay, Example A-1(a); read-out: USP28 A-1(a) IC50 range. The class given is biochemical. In outline: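 Full-length His-tagged USP28 (1-1077, Expi293F-expressed; […]) was preincubated 30 min with compound (25 μM–1.3 nM, 10-point 3-fold) in 20 mM Tris-HCl pH 8.0, 3 mM BME, 0.03% BGG, 0.01% Triton X-100. Ub-Rh110 (25 nM) was then added for 45 min at room temperature, stopped with citric acid, and read by fluorescence (485/535 nm).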
Turning to `COC[C@@]1(C)CN(c2ccc3c(n2)CC[C@H](NC(=O)c2sc4nc(C)ccc4c2N)C3)CC1N` (stereo in doubt) [Example 343, 3-amino-N-[(6S)-2-[(3S,4S)-4-amino-3-(methoxymethyl)-3-methylpyrrolidin-1-yl]-5,6,7,8-tetrahydroquinolin-6-yl]-6-methylthieno[2,3-b]pyridine-2-carboxamide], the negative-log IC50 (pIC50) was 6.70 to 7.30.
`CO[C@]1(C)CN(c2ccc3c(c2)OC[C@H](NC(=O)c2sc4nc(C)ccc4c2N)C3)C[C@H]1N` [Example 282, 3-amino-N-[(3R)-7-[(3R,4R)-4-amino-3-methoxy-3-methylpyrrolidin-1-yl]-3,4-dihydro-2H-1-benzopyran-3-yl]-6-methylthieno[2,3-b]pyridine-2-carboxamide]: the pIC50 is 7.30 to 9.00.
The figure for `CO[C@H]1[C@@H](C)N(c2ccc3c(c2)OC[C@H](NC(=O)c2sc4nc(C)ccc4c2N)C3)C[C@@H]1N` [Example 336, 3-amino-N-[(3R)-7-[(2R,3R,4S)-4-amino-3-methoxy-2-methylpyrrolidin-1-yl]-3,4-dihydro-2H-1-benzopyran-3-yl]-6-methylthieno[2,3-b]pyridine-2-carboxamide] is 7.30 to 9.00.
Take `CO[C@]12CNC[C@H]1CN(c1ccc3c(c1)OC[C@H](NC(=O)c1sc4nc(C)ccc4c1N)C3)C2` [Example 291, N-[(3R)-7-[(3aS,6aS)-3a-methoxy-octahydropyrrolo[3,4-c]pyrrol-2-yl]-3,4-dihydro-2H-1-benzopyran-3-yl]-3-amino-6-methylthieno[2,3-b]pyridine-2-carboxamide]: the pIC50 is 7.30 to 9.00.
The result for `CO[C@]1(C)CN(c2ccc3c(n2)CC[C@H](NC(=O)c2sc4nc(C)cnc4c2N)C3)C[C@H]1N` [Example 280, 7-amino-N-[(6S)-2-[(3R,4R)-4-amino-3-methoxy-3-methylpyrrolidin-1-yl]-5,6,7,8-tetrahydroquinolin-6-yl]-3-methylthieno[2,3-b]pyrazine-6-carboxamide] reads 5.70 to 6.70; that for `CN[C@@H]1CN(c2ccc3c(n2)CC[C@H](NC(=O)c2sc4nc(C)ccc4c2N)C3)C[C@]1(C)O` [Example 332, 3-amino-N-[(6S)-2-[(3S,4R)-3-hydroxy-3-methyl-4-(methylamino)pyrrolidin-1-yl]-5,6,7,8-tetrahydroquinolin-6-yl]-6-methylthieno[2,3-b]pyridine-2-carboxamide], 6.70 to 7.30.
The result for `Cc1ccc2c(N)c(C(=O)N[C@H]3COc4cc(N5C[C@@H](N)[C@@]6(CCO6)C5)ccc4C3)sc2n1` [Example 339, 3-amino-N-[(3R)-7-[(4R,8R)-8-amino-1-oxa-6-azaspiro[3.4]octan-6-yl]-3,4-dihydro-2H-1-benzopyran-3-yl]-6-methylthieno[2,3-b]pyridine-2-carboxamide] reads 7.30 to 9.00.
The result for `Cc1ccc2c(N)c(C(=O)N[C@H]3COc4cc(N5C[C@H](C(F)F)[C@@H](N)C5)ccc4C3)sc2n1` [Example 294, 3-amino-N-[(3R)-7-[(3R,4S)-3-amino-4-(difluoromethyl)pyrrolidin-1-yl]-3,4-dihydro-2H-1-benzopyran-3-yl]-6-methylthieno[2,3-b]pyridine-2-carboxamide] reads 7.30 to 9.00.
For the compound `Cc1ccc2c(N)c(C(=O)N[C@H]3COc4cc(N5C[C@@H]6CCN[C@@H]6C5)ccc4C3)sc2n1` [Example 304, N-[(3R)-7-[(3aS,6aS)-octahydropyrrolo[3,4-b]pyrrol-5-yl]-3,4-dihydro-2H-1-benzopyran-3-yl]-3-amino-6-methylthieno[2,3-b]pyridine-2-carboxamide], the pIC50 is 7.30 to 9.00.
As to `Cc1ccc2c(N)c(C(=O)N[C@H]3CCc4nc(N5C[C@@H](N)[C@@H](OC(C)C)C5)ccc4C3)sc2n1` [Example 322, 3-amino-N-[(6S)-2-[(3R,4S)-3-amino-4-(propan-2-yloxy)pyrrolidin-1-yl]-5,6,7,8-tetrahydroquinolin-6-yl]-6-methylthieno[2,3-b]pyridine-2-carboxamide], the negative logarithm of the IC50 (pIC50) is 5.70 to 6.70.
The figure for `COC[C@H]1C[C@H](N)CN1c1ccc2c(c1)OC[C@H](NC(=O)c1sc3nc(C)ccc3c1N)C2` [Example 261, 3-amino-N-[(3R)-7-[(2R,4S)-4-amino-2-(methoxymethyl)pyrrolidin-1-yl]-3,4-dihydro-2H-1-benzopyran-3-yl]-6-methylthieno[2,3-b]pyridine-2-carboxamide] is 7.30 to 9.00.
The result for `CO[C@@]1(C)CN(c2ccc3c(c2)OC[C@H](NC(=O)c2sc4nc(C)ccc4c2N)C3)C[C@@H]1N` [Example 281, 3-amino-N-[(3R)-7-[(3S,4S)-4-amino-3-methoxy-3-methylpyrrolidin-1-yl]-3,4-dihydro-2H-1-benzopyran-3-yl]-6-methylthieno[2,3-b]pyridine-2-carboxamide] reads 7.30 to 9.00.
The figure for `CO[C@H]1CN(c2ccc3c(n2)OC[C@H](NC(=O)c2sc4nc(C)cc(C)c4c2N)C3)C[C@@H]1N` [Example 286, 3-amino-N-[(3R)-7-[(3S,4S)-3-amino-4-methoxypyrrolidin-1-yl]-2H,3H,4H-pyrano[2,3-b]pyridin-3-yl]-4,6-dimethylthieno[2,3-b]pyridine-2-carboxamide] is 6.70 to 7.30; for `CO[C@@]12CNC[C@@H]1CN(c1ccc3c(c1)OC[C@H](NC(=O)c1sc4nc(C)ccc4c1N)C3)C2` [Example 292, N-[(3R)-7-[(3aR,6aR)-3a-methoxy-octahydropyrrolo[3,4-c]pyrrol-2-yl]-3,4-dihydro-2H-1-benzopyran-3-yl]-3-amino-6-methylthieno[2,3-b]pyridine-2-carboxamide] it is 7.30 to 9.00.
`Cc1ccc2c(N)c(C(=O)N[C@H]3COc4cc(N5C[C@H]6CCN[C@H]6C5)ccc4C3)sc2n1` [Example 305, N-[(3R)-7-[(3aR,6aR)-octahydropyrrolo[3,4-b]pyrrol-5-yl]-3,4-dihydro-2H-1-benzopyran-3-yl]-3-amino-6-methylthieno[2,3-b]pyridine-2-carboxamide]: the negative logarithm of the IC50 (pIC50) was 7.30 to 9.00.
As to `COC[C@H]1CN(c2ccc3c(n2)CC[C@H](NC(=O)c2sc4nc(C)cnc4c2N)C3)C[C@H]1N` [Example 299, 7-amino-N-[(6S)-2-[(3S,4S)-3-amino-4-(methoxymethyl)pyrrolidin-1-yl]-5,6,7,8-tetrahydroquinolin-6-yl]-3-methylthieno[2,3-b]pyrazine-6-carboxamide], the negative-log IC50 (pIC50) was 6.70 to 7.30.
As to `COC[C@]1(C)CN(c2ccc3c(n2)CC[C@H](NC(=O)c2sc4nc(C)ccc4c2N)C3)C[C@H]1N` [Example 344, 3-amino-N-[(6S)-2-[(3R,4S)-4-amino-3-(methoxymethyl)-3-methylpyrrolidin-1-yl]-5,6,7,8-tetrahydroquinolin-6-yl]-6-methylthieno[2,3-b]pyridine-2-carboxamide], the negative-log IC50 (pIC50) was 6.70 to 7.30.
The figure for `COC[C@H]1CN(c2cc(F)c3c(c2F)OC[C@H](NC(=O)c2sc4nc(C)cc(C)c4c2N)C3)C[C@H]1N` [Example 278, 3-amino-N-[(3R)-7-[(3S,4S)-3-amino-4-(methoxymethyl)pyrrolidin-1-yl]-5,8-difluoro-3,4-dihydro-2H-1-benzopyran-3-yl]-4,6-dimethylthieno[2,3-b]pyridine-2-carboxamide] is 7.30 to 9.00; for `CCOC1CN(c2ccc3c(c2)OC[C@H](NC(=O)c2sc4nc(C)cc(C)c4c2N)C3)C[C@@H]1N` (stereo in doubt) [Example 323, 3-amino-N-[(3R)-7-[(3S,4R)-3-amino-4-ethoxypyrrolidin-1-yl]-3,4-dihydro-2H-1-benzopyran-3-yl]-4,6-dimethylthieno[2,3-b]pyridine-2-carboxamide] it is 7.30 to 9.00.
The figure for `CCOC[C@@H]1CN(c2ccc3c(c2)OC[C@H](NC(=O)c2sc4nc(C)ccc4c2N)C3)C[C@@H]1N` [Example 313, 3-amino-N-[(3R)-7-[(3R,4R)-3-amino-4-(ethoxymethyl)pyrrolidin-1-yl]-3,4-dihydro-2H-1-benzopyran-3-yl]-6-methylthieno[2,3-b]pyridine-2-carboxamide] is 7.30 to 9.00; for `COC[C@H]1CN(c2nc3c(cc2F)C[C@H](NC(=O)c2sc4nc(C)ccc4c2N)CC3)C[C@H]1N` (single isomer, unassigned) [Example 303] it is 5.70 to 6.70.
